Measured values: patent US20140004530A1, “METHOD FOR THE EVALUATION OF COMPOUND-TARGET INTERACTIONS ACROSS SPECIES” (CELLZOME GMBH, priority 2010, published 2014)
pIC50: −log10 of the molar value.

Tests used:
PI3Kγ [1] = molecular target: T1, PI3Kγ (Mus musculus, UniProt Q9JHG7); assay: Competition binding profile with the affinity matrix in mixed extracts of human and rodent cell lines; settings: mixed extracts of human (Jurkat) and mouse RAW264.7 cells
T1 construct: acquired in mixed extracts of human, mouse and rat cell lines; endogenous in cells
Protocol: (§1) Since compound efficacy and toxicity are evaluated in laboratory animals, it is important to determine its potency and selectivity in the relevant species. In order to minimize inter-assay variation, we used a mass spectrometric targeted data acquisition approach (Savitski et al., 2010. J. Am. Soc. Mass. Spectrom. 21(10):1668-1679) based on species specific proteotypic peptides (FIG. 7) and mixed cell lysates. Competition binding profiles of compound 2 with the affinity matrix were acquired in mixed extracts of human, mouse and rat cell lines.
(§2) Proteomics-based inhibitor profiling. Affinity profiling assays were performed as described previously ([…]). Derivatized sepharose® beads (35 μl beads per sample) were equilibrated in lysis buffer and incubated with 1 ml (5 mg protein) cell lysate, which had been preincubated with test compound or vehicle for 45 min, on an end-over-end shaker for 1 hour. Incubation was done at 4° C. for all compounds. Beads were transferred to disposable columns (MoBiTec), washed with lysis buffer containing 0.2% NP-40 and eluted with 50 μl 2× SDS sample buffer. Proteins were alkylated with […] iodoacetamide for 30 minutes, separated on 4-12% NuPAGE (Invitrogen), and stained with colloidal Coomassie.
(§3) Sample preparation for mass spectrometry. Gels were cut into slices across the entire separation range and subjected to in-gel digestion. Peptide extracts were labeled with tandem mass tags (TMT®) (Thermo-Fisher Scientific) in 40 mM triethylammoniumbicarbonate (TEAB), pH 8.53. After quenching of the reaction with glycin labeled extracts were combined. For compound profiling experiments extracts from vehicle treated samples were labeled with TMT® reagent 131, and combined with extracts from compound-treated samples labeled with TMT® reagents 126-130, optionally fractionated using reversed phase chromatography at pH 12, dried and acidified prior to LC-MS/MS analysis.
(§4) LC-MS/MS analysis. Samples were dried in vacuo and resuspended in 0.1% formic acid in water and aliquots of the sample were injected into a nano-LC system (Eksigent 1 D+) coupled to LTQ-Orbitrap mass spectrometers (Thermo-Finnigan). Peptides were separated on custom 50 cm×[…] (internal diameter) reversed-phase columns (Reprosil) at 40° C. Gradient elution was performed from 2% acetonitrile to 40% acetonitrile in 0.1% formic acid over 2-4 hours. […] Intact peptides were detected in the Orbitrap at 30.000 resolution. […]
(§5) Creation of peptide inclusion lists. […] Subsequently for each human and mouse (or rat) protein that was of interest to the study the selected peptides were ranked according to the quality of the quantification and ease of identification inherent to these peptides (Savitski et al., 2010, J. Am. Soc. Mass. Spectrom. 21(10):1668-1679). […]
(§6) Peptide and protein quantification. […]

PI3Kβ [2] = molecular target: T2, PI3Kβ (Mus musculus, UniProt Q8BTI9); assay: as above; settings: mixed extracts of human (Jurkat) and mouse RAW264.7 cells
T2 construct: acquired in mixed extracts of human, mouse and rat cell lines; endogenous in cells
Protocol: as §1, §2, §3, §4, §5, §6

PI3Kβ [3] = molecular target: T3, PI3Kβ (Rattus norvegicus, UniProt Q9Z1L0); assay: as above; settings: mixed extracts of human (Jurkat) and rat RBL-1 cells
T3 construct: acquired in mixed extracts of human, mouse and rat cell lines; endogenous in cells
Protocol: as §1, §2, §3, §4, §5, §6

PI3Kγ [4] = assay: as above; settings: mixed extracts of human (Jurkat) and rat RBL-1 cells
Protocol: as §1, §2, §3, §4, §5, §6

PIK4Ca = molecular target: T4, PIK4Ca (Homo sapiens, UniProt P42356); assay: Competition binding to affinity matrix in mixed human/mouse cell lysate, quantitative MS of species-specific peptides; settings: HL-60 + RAW 264.7 mixed lysate
T4 construct: Cell lysates from a human (HL60) and a mouse cell line (Raw 264.7) were prepared; endogenous in cells; host or cells: HL60
Protocol: (§7) Cell lysates from a human (HL60) and a mouse cell line (Raw 264.7) were prepared and subsequently mixed at a 1:1 ratio. Compound 1 was added at various concentrations (3 μM, 0.75 μM, 0.047 μM, 0.012 μM, plus DMSO solvent control) to aliquots of this mixed cell lysate and allowed to bind to the proteins in the lysate. Subsequently, the affinity matrix (beads with immobilized ligands) was added to each aliquot to capture proteins that were not interacting with compound 1. The generation of the affinity matrix (beads with immobilized ligands) was described in WO 2009/098021.
(§8) After the incubation time of 60 minutes the beads with captured proteins were separated from the lysate and bead bound proteins were eluted in SDS sample buffer and subsequently separated by SDS-Polyacrylamide gel electrophoresis. Electrophoresis was stopped after 20 minutes and the gel was stained with colloidal Coomassie. The stained area of each gel lane was cut out and subjected to in-gel proteolytic digestion with trypsin. Peptides originating from the different aliquots treated with compound 1 and the DMSO solvent control were labeled with isobaric tagging reagents (Tandem mass tag (TMT®) reagents, Thermofisher). The TMT® reagents are a set of multiplexed, amine-specific, stable isotope reagents that can label peptides in up to six different biological samples enabling simultaneous identification and quantitation of peptides. The combined samples were analyzed with a nano-flow liquid chromatography system coupled online to a tandem mass spectrometer (LC-MS/MS) experiment followed by reporter ion quantitation in the MS/MS spectra (Ross et al., 2004. Mol. Cell. Proteomics 3(12):1154-1169; Dayon et al., 2008. Anal. Chem. 80(8):2921-2931; Thompson et al., 2003. Anal. Chem. 75(8):1895-1904). Further experimental protocols can be found in WO2006/134056 and a previous publication (Bantscheff et al., 2007. Nature Biotechnology 25, 1035-1044).
(§9) Cells were homogenized in a Potter S homogenizer in lysis buffer: 50 mM Tris-HCl, 0.8% NP40, 5% glycerol, 150 mM NaCl, 1.5 mM MgCl2, 25 mM NaF, 1 mM sodium vanadate, 1 mM DTT, pH 7.5. One complete EDTA-free tablet (protease inhibitor cocktail, Roche Diagnostics, 1 873 580) per 25 ml buffer was added. The material was dounced 20 times using a mechanized POTTER S, transferred to 50 ml falcon tubes, incubated for 30 minutes rotating at 4° C. and spun down for 10 minutes at 20,000×g at 4° C. (10,000 rpm in Sorvall SLA600, precooled). The supernatant was transferred to an ultracentrifuge (UZ)-polycarbonate tube (Beckmann, 355654) and spun for 1 hour at 145.000×g at 4° C. (40.000 rpm in Ti50.2, pre-cooled). The supernatant was transferred again to a fresh 50 ml falcon tube, the protein concentration was determined by a Bradford assay (BioRad) and samples containing 5 mg of protein per aliquot were prepared. The samples were immediately used for experiments or frozen in liquid nitrogen and stored frozen at −80° C. Cell extracts from human HL60 cells and mouse raw 264.7 cells were mixed in a one to one (1:1) ratio.
(§10) Sepharose®-beads with the immobilized ligands (35 μl beads per aliquot) were equilibrated in lysis buffer and incubated with a cell lysate sample containing 5 mg of protein on an end-over-end shaker (Roto Shake Genie, Scientific Industries Inc.) for 60 minutes at 4° C. Beads were collected, transferred to Mobicol-columns (MoBiTech 10055) and washed with 10 ml lysis buffer containing 0.4% NP40 detergent, followed by 5 ml lysis buffer containing 0.2% detergent. To elute bound proteins, 60 μl 2× SDS sample buffer was added to the column. The column was incubated for 30 minutes at 4° C. and the eluate was transferred to a siliconized microfuge tube by centrifugation. Proteins were then alkylated with 108 mM iodoacetamid. Proteins were then separated by SDS-Polyacrylamide electrophoresis (SDS-PAGE). Suitable gel bands were cut out and subjected to in-gel proteolytic digestion with trypsin. […]

PIK3Cd (PI3Kδ) [5] = molecular target: T5, PIK3Cd (PI3Kδ) (Homo sapiens, UniProt O00329); assay: as above; settings: for pIC50: HL-60 + RAW 264.7 mixed lysate
T5 construct: Cell lysates from a human (HL60) and a mouse cell line (Raw 264.7) were prepared; endogenous in cells; host or cells: HL60
T5 sequence (O00329 whole entry): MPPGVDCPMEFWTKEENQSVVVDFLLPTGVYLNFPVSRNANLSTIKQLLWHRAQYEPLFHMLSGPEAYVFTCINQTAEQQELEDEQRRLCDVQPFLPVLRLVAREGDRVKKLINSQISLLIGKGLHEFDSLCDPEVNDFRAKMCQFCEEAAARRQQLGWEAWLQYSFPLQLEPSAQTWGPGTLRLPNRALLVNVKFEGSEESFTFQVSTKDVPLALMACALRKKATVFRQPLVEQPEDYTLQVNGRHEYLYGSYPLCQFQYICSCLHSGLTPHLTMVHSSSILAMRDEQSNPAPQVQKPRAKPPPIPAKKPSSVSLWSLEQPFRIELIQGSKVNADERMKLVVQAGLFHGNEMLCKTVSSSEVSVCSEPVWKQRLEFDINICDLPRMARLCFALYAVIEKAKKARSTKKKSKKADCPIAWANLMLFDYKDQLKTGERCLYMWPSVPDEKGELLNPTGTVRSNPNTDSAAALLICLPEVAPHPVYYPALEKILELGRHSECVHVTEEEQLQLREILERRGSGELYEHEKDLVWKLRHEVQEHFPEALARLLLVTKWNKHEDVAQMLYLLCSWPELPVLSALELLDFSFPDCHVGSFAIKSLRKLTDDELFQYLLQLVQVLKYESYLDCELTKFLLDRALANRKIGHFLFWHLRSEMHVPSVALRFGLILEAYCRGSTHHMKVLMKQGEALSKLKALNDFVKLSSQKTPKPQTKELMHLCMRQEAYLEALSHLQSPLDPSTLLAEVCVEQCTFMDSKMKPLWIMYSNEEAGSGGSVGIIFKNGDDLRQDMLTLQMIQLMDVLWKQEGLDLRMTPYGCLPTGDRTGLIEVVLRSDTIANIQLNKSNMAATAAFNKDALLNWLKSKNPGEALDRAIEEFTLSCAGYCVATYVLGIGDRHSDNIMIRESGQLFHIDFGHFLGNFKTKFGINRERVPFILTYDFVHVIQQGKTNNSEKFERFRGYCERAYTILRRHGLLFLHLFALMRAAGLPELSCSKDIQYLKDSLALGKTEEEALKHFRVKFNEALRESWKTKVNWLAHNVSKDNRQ
T5 sequence (P27986 whole entry partner): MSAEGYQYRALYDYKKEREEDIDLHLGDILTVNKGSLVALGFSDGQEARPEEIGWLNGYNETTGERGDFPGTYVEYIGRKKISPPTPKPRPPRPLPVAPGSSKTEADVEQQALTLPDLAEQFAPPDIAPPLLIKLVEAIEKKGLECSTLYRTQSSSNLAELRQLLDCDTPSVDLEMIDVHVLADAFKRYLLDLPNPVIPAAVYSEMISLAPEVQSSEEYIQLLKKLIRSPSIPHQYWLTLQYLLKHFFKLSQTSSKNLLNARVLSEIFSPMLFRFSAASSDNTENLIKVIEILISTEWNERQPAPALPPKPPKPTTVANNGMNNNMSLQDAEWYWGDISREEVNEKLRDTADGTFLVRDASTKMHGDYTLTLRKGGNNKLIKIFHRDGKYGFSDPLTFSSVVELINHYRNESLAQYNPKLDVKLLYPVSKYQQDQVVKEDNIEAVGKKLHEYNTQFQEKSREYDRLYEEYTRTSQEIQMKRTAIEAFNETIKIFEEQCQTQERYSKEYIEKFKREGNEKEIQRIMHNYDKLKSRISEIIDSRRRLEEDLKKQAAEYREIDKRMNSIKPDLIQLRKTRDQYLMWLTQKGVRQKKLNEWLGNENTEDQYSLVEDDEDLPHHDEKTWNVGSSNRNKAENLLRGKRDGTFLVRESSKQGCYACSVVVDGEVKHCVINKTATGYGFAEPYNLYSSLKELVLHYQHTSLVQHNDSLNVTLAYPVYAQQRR
Protocol: as §7, §8, §9, §10

PIK3Cg (PI3Kγ) [6] = molecular target: T6, PIK3Cg (PI3Kγ) (Homo sapiens, UniProt P48736); assay: as above; settings: for pIC50: HL-60 + RAW 264.7 mixed lysate
T6 construct: Cell lysates from a human (HL60) and a mouse cell line (Raw 264.7) were prepared; endogenous in cells; host or cells: HL60
Protocol: as §7, §8, §9, §10

PIK3Cg (PI3Kγ) [7] = molecular target: T7, PIK3Cg (PI3Kγ) (Mus musculus, UniProt Q9JHG7); assay: as above; settings: for pIC50: HL-60 + RAW 264.7 mixed lysate
T7 construct: Cell lysates from a human (HL60) and a mouse cell line (Raw 264.7) were prepared; endogenous in cells; host or cells: RAW264.7
T7 sequence (Q9JHG7 whole entry): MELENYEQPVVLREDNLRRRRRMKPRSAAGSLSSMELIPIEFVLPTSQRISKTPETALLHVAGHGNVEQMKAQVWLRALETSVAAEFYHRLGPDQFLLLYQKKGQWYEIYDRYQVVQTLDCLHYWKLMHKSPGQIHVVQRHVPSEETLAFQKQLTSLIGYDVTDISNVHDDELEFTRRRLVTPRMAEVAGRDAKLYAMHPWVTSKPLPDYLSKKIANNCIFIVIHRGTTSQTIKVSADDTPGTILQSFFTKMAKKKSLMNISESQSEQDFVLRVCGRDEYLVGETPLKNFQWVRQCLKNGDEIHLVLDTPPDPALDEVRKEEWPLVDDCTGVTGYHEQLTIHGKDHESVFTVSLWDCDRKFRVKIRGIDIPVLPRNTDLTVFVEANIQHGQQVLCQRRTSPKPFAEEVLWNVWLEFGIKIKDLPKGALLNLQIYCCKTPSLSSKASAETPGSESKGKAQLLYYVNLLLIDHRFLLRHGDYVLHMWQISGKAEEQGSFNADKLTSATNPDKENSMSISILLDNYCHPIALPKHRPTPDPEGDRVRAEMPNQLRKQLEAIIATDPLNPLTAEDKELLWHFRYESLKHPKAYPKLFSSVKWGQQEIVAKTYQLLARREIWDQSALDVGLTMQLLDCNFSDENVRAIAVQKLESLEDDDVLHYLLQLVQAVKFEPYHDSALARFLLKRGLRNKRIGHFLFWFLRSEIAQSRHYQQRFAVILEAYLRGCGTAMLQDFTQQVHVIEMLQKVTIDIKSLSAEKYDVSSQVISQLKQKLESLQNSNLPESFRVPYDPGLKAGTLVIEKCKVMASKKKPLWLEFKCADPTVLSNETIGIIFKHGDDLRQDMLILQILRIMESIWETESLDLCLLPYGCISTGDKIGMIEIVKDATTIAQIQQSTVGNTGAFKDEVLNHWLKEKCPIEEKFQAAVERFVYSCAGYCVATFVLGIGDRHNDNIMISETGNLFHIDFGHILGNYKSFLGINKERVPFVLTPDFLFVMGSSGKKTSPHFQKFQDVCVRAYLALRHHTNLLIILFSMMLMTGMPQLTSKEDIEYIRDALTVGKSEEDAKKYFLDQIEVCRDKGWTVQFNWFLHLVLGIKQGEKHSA
Protocol: as §7, §8, §9, §10

PIK3Cb (PI3Kbeta) [8] = molecular target: T8, PIK3Cb (PI3Kbeta) (Homo sapiens, UniProt P42338); assay: as above; settings: for pIC50: HL-60 + RAW 264.7 mixed lysate
T8 construct: Cell lysates from a human (HL60) and a mouse cell line (Raw 264.7) were prepared; endogenous in cells; host or cells: HL60
T8 sequence (P42338 whole entry): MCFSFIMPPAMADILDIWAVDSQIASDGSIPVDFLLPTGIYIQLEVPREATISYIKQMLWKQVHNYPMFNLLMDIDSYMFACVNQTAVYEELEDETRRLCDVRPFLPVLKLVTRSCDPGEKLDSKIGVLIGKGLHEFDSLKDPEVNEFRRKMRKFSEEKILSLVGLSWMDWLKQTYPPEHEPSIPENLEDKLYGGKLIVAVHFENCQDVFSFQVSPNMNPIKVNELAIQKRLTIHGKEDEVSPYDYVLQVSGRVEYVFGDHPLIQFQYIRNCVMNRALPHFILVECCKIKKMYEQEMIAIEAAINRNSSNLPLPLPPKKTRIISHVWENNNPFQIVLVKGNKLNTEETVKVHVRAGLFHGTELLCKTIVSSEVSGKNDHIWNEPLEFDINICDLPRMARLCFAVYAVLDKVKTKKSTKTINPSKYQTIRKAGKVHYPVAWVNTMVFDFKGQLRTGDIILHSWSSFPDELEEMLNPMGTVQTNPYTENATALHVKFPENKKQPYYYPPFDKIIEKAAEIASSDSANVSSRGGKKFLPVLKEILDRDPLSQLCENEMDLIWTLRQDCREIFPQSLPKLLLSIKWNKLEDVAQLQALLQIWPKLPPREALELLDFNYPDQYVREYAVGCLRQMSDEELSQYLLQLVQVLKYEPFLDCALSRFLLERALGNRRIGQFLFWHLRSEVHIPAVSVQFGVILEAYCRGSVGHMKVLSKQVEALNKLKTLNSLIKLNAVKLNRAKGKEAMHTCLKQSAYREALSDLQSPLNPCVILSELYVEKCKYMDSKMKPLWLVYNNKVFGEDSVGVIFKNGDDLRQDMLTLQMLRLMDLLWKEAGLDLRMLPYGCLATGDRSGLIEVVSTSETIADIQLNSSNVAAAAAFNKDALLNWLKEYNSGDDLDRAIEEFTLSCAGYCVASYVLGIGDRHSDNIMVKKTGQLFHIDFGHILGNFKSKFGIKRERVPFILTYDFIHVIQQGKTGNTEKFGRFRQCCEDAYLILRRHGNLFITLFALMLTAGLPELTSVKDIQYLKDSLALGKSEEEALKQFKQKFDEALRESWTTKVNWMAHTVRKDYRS
T8 sequence (P27986 whole entry partner): as the sequence (P27986 whole entry partner) above
Protocol: as §7, §8, §9, §10

PIK3Cd (PI3Kδ) [9] = molecular target: T9, PIK3Cd (PI3Kδ) (Mus musculus, UniProt O35904); assay: as above; settings: HL-60 + RAW 264.7 mixed lysate
T9 construct: Cell lysates from a human (HL60) and a mouse cell line (Raw 264.7) were prepared; endogenous in cells; host or cells: RAW264.7
Protocol: as §7, §8, §9, §10

PIK4Cb = molecular target: T10, PIK4Cb (Homo sapiens, UniProt Q9UBF8); assay: as above; settings: HL-60 + RAW 264.7 mixed lysate
T10 construct: Cell lysates from a human (HL60) and a mouse cell line (Raw 264.7) were prepared; endogenous in cells; host or cells: HL60
Protocol: as §7, §8, §9, §10

PIK3R4 = molecular target: T11, PIK3R4 (Homo sapiens, UniProt Q99570); assay: as above; settings: Experiment 1 (human/mouse 1); HL-60 + RAW 264.7 mixed lysate
T11 construct: Cell lysates from a human (HL60) and a mouse cell line (Raw 264.7) were prepared; endogenous in cells; host or cells: HL60
Protocol: as §7, §8, §9, §10

PIK3Ca = molecular target: T12, PIK3Ca (Homo sapiens, UniProt P42336); assay: as above; settings: for pIC50: HL-60 + RAW 264.7 mixed lysate
T12 construct: Cell lysates from a human (HL60) and a mouse cell line (Raw 264.7) were prepared; endogenous in cells; host or cells: HL60
T12 sequence (P42336 whole entry): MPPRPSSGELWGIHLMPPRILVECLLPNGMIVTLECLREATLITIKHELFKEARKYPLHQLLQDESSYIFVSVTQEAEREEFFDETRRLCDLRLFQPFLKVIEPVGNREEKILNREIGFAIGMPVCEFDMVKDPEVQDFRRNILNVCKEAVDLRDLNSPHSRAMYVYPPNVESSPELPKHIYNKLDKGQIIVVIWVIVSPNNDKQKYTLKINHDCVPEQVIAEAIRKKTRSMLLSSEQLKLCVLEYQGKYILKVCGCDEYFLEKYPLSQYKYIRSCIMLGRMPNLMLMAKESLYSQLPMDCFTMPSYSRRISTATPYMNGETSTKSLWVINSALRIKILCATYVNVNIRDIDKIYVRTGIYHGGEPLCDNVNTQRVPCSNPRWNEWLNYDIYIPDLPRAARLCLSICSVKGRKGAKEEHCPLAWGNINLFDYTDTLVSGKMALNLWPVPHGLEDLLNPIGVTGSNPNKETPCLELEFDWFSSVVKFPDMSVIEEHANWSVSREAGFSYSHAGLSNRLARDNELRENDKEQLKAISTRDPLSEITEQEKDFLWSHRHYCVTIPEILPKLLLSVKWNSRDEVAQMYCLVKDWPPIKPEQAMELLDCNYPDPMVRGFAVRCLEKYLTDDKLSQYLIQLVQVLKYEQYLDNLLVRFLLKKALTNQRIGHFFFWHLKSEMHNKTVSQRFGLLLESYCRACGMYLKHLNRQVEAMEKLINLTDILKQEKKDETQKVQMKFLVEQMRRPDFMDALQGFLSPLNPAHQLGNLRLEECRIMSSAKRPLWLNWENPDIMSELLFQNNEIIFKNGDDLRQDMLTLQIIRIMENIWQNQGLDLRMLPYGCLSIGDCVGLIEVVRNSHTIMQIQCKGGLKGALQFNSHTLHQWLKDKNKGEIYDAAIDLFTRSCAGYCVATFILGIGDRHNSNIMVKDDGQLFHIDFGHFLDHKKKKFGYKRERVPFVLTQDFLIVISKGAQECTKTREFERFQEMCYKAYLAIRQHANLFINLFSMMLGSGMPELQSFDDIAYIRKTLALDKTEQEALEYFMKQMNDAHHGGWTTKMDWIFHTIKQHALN
T12 sequence (P27986 whole entry partner): as the sequence (P27986 whole entry partner) above
Protocol: as §7, §8, §9, §10

PIK3C3 = molecular target: T13, PIK3C3 (Homo sapiens, UniProt Q8NEB9); assay: as above; settings: Experiment 1 (human/mouse 1); HL-60 + RAW 264.7 mixed lysate
T13 construct: Cell lysates from a human (HL60) and a mouse cell line (Raw 264.7) were prepared; endogenous in cells; host or cells: HL60
Protocol: as §7, §8, §9, §10

PIK3Cb (PI3Kbeta) [10] = molecular target: T14, PIK3Cb (PI3Kbeta) (Mus musculus, UniProt Q8BTI9); assay: as above; settings: HL-60 + RAW 264.7 mixed lysate
T14 construct: Cell lysates from a human (HL60) and a mouse cell line (Raw 264.7) were prepared; endogenous in cells; host or cells: RAW264.7
Protocol: as §7, §8, §9, §10

[11] = potency ratio across species, average of two experiments

CC(C)(C)NS(=O)(=O)c1cncc(-c2cc(F)c3nc(N)nn3c2)c1 [compound 2]
potency for PI3Kγ in mouse compared to human (PI3Kγ [1]): two- to four-fold lower | potency for PI3Kβ in mouse compared to human (PI3Kβ [2]): two- to four-fold lower | potency for PI3Kβ in rat compared to human (PI3Kβ [3]): two- to four-fold lower | potency for PI3Kγ in rat compared to human (PI3Kγ [4]): two- to four-fold lower

CC(C)(C)NS(=O)(=O)c1cncc(-c2ccc3nc(N)nn3c2)c1 [compound 1]
pIC50 (PIK4Ca; Experiment 1 (human/mouse 1)): ≤ 5.52 | pIC50 (PIK4Ca; Experiment 2 (human/mouse 2)): ≤ 5.52 | pIC50 (PIK3Cd (PI3Kδ) [5]; Experiment 1 (human/mouse 1)): 5.97 | pIC50 (PIK3Cd (PI3Kδ) [5]; Experiment 2 (human/mouse 2)): 5.82 | Average ratio human mouse, PIK3Cd (PIK3Cd (PI3Kδ) [5]; [11]): 1.0 | pIC50 (PIK3Cg (PI3Kγ) [6]; Experiment 1 (human/mouse 1)): 7.66 | pIC50 (PIK3Cg (PI3Kγ) [6]; Experiment 2 (human/mouse 2)): 7.57 | ratio of the IC50 for PIK3CD and PIK3CG (selectivity window) (PIK3Cg (PI3Kγ) [6]; in humans): 48 | Average ratio human mouse, PIK3Cg (PIK3Cg (PI3Kγ) [6]; [11]): 2.61 | pIC50 (PIK3Cg (PI3Kγ) [7]; Experiment 1 (human/mouse 1)): 7.24 | pIC50 (PIK3Cg (PI3Kγ) [7]; Experiment 2 (human/mouse 2)): 7.15 | IC50 ratio for PIK3CD and PIK3CG (selectivity window) (PIK3Cg (PI3Kγ) [7]; in mouse): 23 | pIC50 (PIK3Cb (PI3Kbeta) [8]; Experiment 1 (human/mouse 1)): 6.87 | pIC50 (PIK3Cb (PI3Kbeta) [8]; Experiment 2 (human/mouse 2)): 6.55 | Average ratio human mouse, PIK3Cb (PIK3Cb (PI3Kbeta) [8]; [11]): 0.87 | pIC50 (PIK3Cd (PI3Kδ) [9]; Experiment 1 (human/mouse 1)): 5.88 | pIC50 (PIK3Cd (PI3Kδ) [9]; Experiment 2 (human/mouse 2)): 5.89 | pIC50 (PIK4Cb; Experiment 1 (human/mouse 1)): ≤ 5.52 | pIC50 (PIK4Cb; Experiment 2 (human/mouse 2)): ≤ 5.52 | pIC50 (PIK3R4): ≤ 5.52 | pIC50 (PIK3Ca; Experiment 1 (human/mouse 1)): 5.62 | pIC50 (PIK3Ca; Experiment 2 (human/mouse 2)): 5.59 | Average ratio human mouse, PIK3Ca (PIK3Ca; [11]): app. 1 | pIC50 (PIK3C3): ≤ 5.52 | pIC50 (PIK3Cb (PI3Kbeta) [10]; Experiment 1 (human/mouse 1)): 6.60 | pIC50 (PIK3Cb (PI3Kbeta) [10]; Experiment 2 (human/mouse 2)): 6.79
